Assay results from PubChem BioAssay AID2060614 (Molecular Pharmacology Branch, DTP, NCI, 2025).
pIC50: −log10 of the molar value.

Test system: 598228-144-R-J1-PDC complex spheroids, viability
Assay: Anticancer human tumor 598228-144-R-J1-PDC patient-derived serous endometrial adenocarcinoma cell line growth inhibition [CLK]
Settings: for pIC50: curve of first compound; for viability, T/C: stronger effect = lower value
Method in brief: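 Patient-derived tumor cells grown as complex spheroids with HUVEC endothelial cells and mesenchymal stem cells, treated with drug combinations. Concentrations descend in half-log steps from near clinical Cmax, or from 10 microM if Cmax unknown.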

[1] = second compound 0.0316 µM, first compound 0.0316 µM
[2] = second compound 0.0316 µM, first compound 0.1 µM
[3] = second compound 0.0316 µM, first compound 0.316 µM
[4] = second compound 0.0316 µM, first compound 1 µM
[5] = second compound 0.1 µM, first compound 0.0316 µM
[6] = second compound 0.1 µM, first compound 0.1 µM
[7] = second compound 0.1 µM, first compound 0.316 µM
[8] = second compound 0.1 µM, first compound 1 µM
[9] = second compound 0.316 µM, first compound 0.0316 µM
[10] = second compound 0.316 µM, first compound 0.1 µM
[11] = second compound 0.316 µM, first compound 0.316 µM
[12] = second compound 0.316 µM, first compound 1 µM
[13] = second compound 1 µM, first compound 0.0316 µM
[14] = second compound 1 µM, first compound 0.1 µM
[15] = second compound 1 µM, first compound 0.316 µM
[16] = second compound 1 µM, first compound 1 µM
[17] = second compound 3.16 µM, first compound 0.0316 µM
[18] = second compound 3.16 µM, first compound 0.1 µM
[19] = second compound 3.16 µM, first compound 0.316 µM
[20] = second compound 3.16 µM, first compound 1 µM
[21] = second compound 10 µM, first compound 0.0316 µM
[22] = second compound 10 µM, first compound 0.1 µM
[23] = second compound 10 µM, first compound 0.316 µM
[24] = second compound 10 µM, first compound 1 µM
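Note: spheroids exposed to compounds for seven days before readout.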
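Throughout, for viability, T/C: 100% = DMSO vehicle control wells.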

`CC(=O)O[C@H]1C(=O)[C@@]2(C)[C@H]([C@H](OC(=O)c3ccccc3)[C@]3(O)C[C@H](OC(=O)[C@H](O)[C@@H](NC(=O)c4ccccc4)c4ccccc4)C(C)=C1C3(C)C)[C@]1(OC(C)=O)CO[C@@H]1C[C@@H]2O` + CNC(=O)c1ccc(Nc2nc(OC3CCCC3)c3c(-c4ccc5nc(C)oc5c4)c[nH]c3n2)c(OC)c1 gave a pIC50 (second compound 0.0316 µM) of over 7.50, a pIC50 (second compound 0.1 µM) of under 5.00 and a pIC50 (second compound 0.316 µM) of under 5.00. For the same compound, the pIC50 (second compound 1 µM) was under 5.00, the pIC50 (second compound 3.16 µM) was under 5.00 and the pIC50 (second compound 10 µM) was under 5.00. For the same compound, the viability, T/C [1] was 45.6%, the viability, T/C [2] was 46.2% and the viability, T/C [3] was 40.3%. The viability, T/C [4] was 40.9%, the viability, T/C (second compound 0.0316 µM, first compound 3.16 µM) was 45.2% and the viability, T/C (second compound 0.0316 µM, first compound 10 µM) was 50.6%. For the same compound, the viability, T/C [5] was 70%, the viability, T/C [6] was 58% and the viability, T/C [7] was 64.8%. It also gave a viability, T/C [8] of 66.2%, a viability, T/C (second compound 0.1 µM, first compound 3.16 µM) of 57.4% and a viability, T/C (second compound 0.1 µM, first compound 10 µM) of 67%. For the same compound, the viability, T/C [9] was 121%, the viability, T/C [10] was 123% and the viability, T/C [11] was 94.9%. It also gave a viability, T/C [12] of 108%, a viability, T/C (second compound 0.316 µM, first compound 3.16 µM) of 106% and a viability, T/C (second compound 0.316 µM, first compound 10 µM) of 84.1%. The viability, T/C [13] was 120%, the viability, T/C [14] was 102% and the viability, T/C [15] was 92.5%. For the same compound, the viability, T/C [16] was 125%, the viability, T/C (second compound 1 µM, first compound 3.16 µM) was 109% and the viability, T/C (second compound 1 µM, first compound 10 µM) was 86.8%. The viability, T/C [17] was 102%, the viability, T/C [18] was 96.2% and the viability, T/C [19] was 103%. It also gave a viability, T/C [20] of 108%, a viability, T/C (second compound 3.16 µM, first compound 3.16 µM) of 105% and a viability, T/C (second compound 3.16 µM, first compound 10 µM) of 92.1%. For the same compound, the viability, T/C [21] was 101%, the viability, T/C [22] was 97% and the viability, T/C [23] was 109%. It also gave a viability, T/C [24] of 103%, a viability, T/C (second compound 10 µM, first compound 3.16 µM) of 90.4% and a viability, T/C (second compound 10 µM, first compound 10 µM) of 107%.

Work on `NC(=O)C(=Cn1cnc(-c2cc(C(F)(F)F)cc(C(F)(F)F)c2)n1)c1cncnc1` + CN1CCN(c2cc(C(=O)Nc3cc4cc(-c5cnn(C)c5)ccc4cn3)ccn2)CC1 yielded a pIC50 (second compound 0.0316 µM) of 6.63, a pIC50 (second compound 0.1 µM) of 6.46 and a pIC50 (second compound 0.316 µM) of over 8.02. It also gave a pIC50 (second compound 1 µM) of over 8.02, a pIC50 (second compound 3.16 µM) of over 8.02 and a pIC50 (second compound 10 µM) of over 8.02. It also gave a viability, T/C (second compound 0.0316 µM, first compound 0.00949 µM) of 108%, a viability, T/C (second compound 0.0316 µM, first compound 0.03 µM) of 109% and a viability, T/C (second compound 0.0316 µM, first compound 0.0949 µM) of 72.9%. It also gave a viability, T/C (second compound 0.0316 µM, first compound 0.3 µM) of 47.6%, a viability, T/C (second compound 0.0316 µM, first compound 0.949 µM) of 29.3% and a viability, T/C (second compound 0.0316 µM, first compound 3 µM) of 37.8%. For the same compound, the viability, T/C (second compound 0.1 µM, first compound 0.00949 µM) was 114%, the viability, T/C (second compound 0.1 µM, first compound 0.03 µM) was 87.4% and the viability, T/C (second compound 0.1 µM, first compound 0.0949 µM) was 76.9%. For the same compound, the viability, T/C (second compound 0.1 µM, first compound 0.3 µM) was 47.7%, the viability, T/C (second compound 0.1 µM, first compound 0.949 µM) was 38.9% and the viability, T/C (second compound 0.1 µM, first compound 3 µM) was 9.13%. It also gave a viability, T/C (second compound 0.316 µM, first compound 0.00949 µM) of 12.9%, a viability, T/C (second compound 0.316 µM, first compound 0.03 µM) of 6.08% and a viability, T/C (second compound 0.316 µM, first compound 0.0949 µM) of 0.74%. It also gave a viability, T/C (second compound 0.316 µM, first compound 0.3 µM) of 0.62%, a viability, T/C (second compound 0.316 µM, first compound 0.949 µM) of 2.45% and a viability, T/C (second compound 0.316 µM, first compound 3 µM) of 1.39%. The viability, T/C (second compound 1 µM, first compound 0.00949 µM) was 0.59%, the viability, T/C (second compound 1 µM, first compound 0.03 µM) was 0.85% and the viability, T/C (second compound 1 µM, first compound 0.0949 µM) was 1.1%. For the same compound, the viability, T/C (second compound 1 µM, first compound 0.3 µM) was 1.03%, the viability, T/C (second compound 1 µM, first compound 0.949 µM) was 0.66% and the viability, T/C (second compound 1 µM, first compound 3 µM) was 0.41%. For the same compound, the viability, T/C (second compound 3.16 µM, first compound 0.00949 µM) was 1.32%, the viability, T/C (second compound 3.16 µM, first compound 0.03 µM) was 2.21% and the viability, T/C (second compound 3.16 µM, first compound 0.0949 µM) was 2.27%. It also gave a viability, T/C (second compound 3.16 µM, first compound 0.3 µM) of 1.81%, a viability, T/C (second compound 3.16 µM, first compound 0.949 µM) of 4.57% and a viability, T/C (second compound 3.16 µM, first compound 3 µM) of 0.46%. For the same compound, the viability, T/C (second compound 10 µM, first compound 0.00949 µM) was 0.86%, the viability, T/C (second compound 10 µM, first compound 0.03 µM) was 0.87% and the viability, T/C (second compound 10 µM, first compound 0.0949 µM) was 1.32%. It also gave a viability, T/C (second compound 10 µM, first compound 0.3 µM) of 0.79%, a viability, T/C (second compound 10 µM, first compound 0.949 µM) of 1.73% and a viability, T/C (second compound 10 µM, first compound 3 µM) of 0.39%.

`COc1c(OCCCN2CCOCC2)ccc2c3n(c(=NC(=O)c4cnc(N)nc4)nc12)CCN3` + CNC(=O)c1ccc(Nc2nc(OC3CCCC3)c3c(-c4ccc5nc(C)oc5c4)c[nH]c3n2)c(OC)c1 showed a pIC50 (second compound 0.0316 µM) of 7.58, a pIC50 (second compound 0.1 µM) of 7.52 and a pIC50 (second compound 0.316 µM) of 7.74. The pIC50 (second compound 1 µM) was 7.82, the pIC50 (second compound 3.16 µM) was 7.97 and the pIC50 (second compound 10 µM) was 8.00. It also gave a viability, T/C (second compound 0.0316 µM, first compound 0.00316 µM) of 85.7%, a viability, T/C (second compound 0.0316 µM, first compound 0.01 µM) of 65.5% and a viability, T/C [1] of 49%. For the same compound, the viability, T/C [2] was 26.5%, the viability, T/C [3] was 15.7% and the viability, T/C [4] was 9.14%. The viability, T/C (second compound 0.1 µM, first compound 0.00316 µM) was 104%, the viability, T/C (second compound 0.1 µM, first compound 0.01 µM) was 74.2% and the viability, T/C [5] was 51.4%. For the same compound, the viability, T/C [6] was 25.8%, the viability, T/C [7] was 13.6% and the viability, T/C [8] was 5.09%. It also gave a viability, T/C (second compound 0.316 µM, first compound 0.00316 µM) of 97.8%, a viability, T/C (second compound 0.316 µM, first compound 0.01 µM) of 65.4% and a viability, T/C [9] of 35.7%. For the same compound, the viability, T/C [10] was 19.6%, the viability, T/C [11] was 11.3% and the viability, T/C [12] was 5.13%. The viability, T/C (second compound 1 µM, first compound 0.00316 µM) was 86.8%, the viability, T/C (second compound 1 µM, first compound 0.01 µM) was 61.4% and the viability, T/C [13] was 29.9%. The viability, T/C [14] was 16.6%, the viability, T/C [15] was 8.67% and the viability, T/C [16] was 5.42%. The viability, T/C (second compound 3.16 µM, first compound 0.00316 µM) was 73.5%, the viability, T/C (second compound 3.16 µM, first compound 0.01 µM) was 51.5% and the viability, T/C [17] was 28.4%. The viability, T/C [18] was 13.9%, the viability, T/C [19] was 7.8% and the viability, T/C [20] was 3.58%. For the same compound, the viability, T/C (second compound 10 µM, first compound 0.00316 µM) was 71.2%, the viability, T/C (second compound 10 µM, first compound 0.01 µM) was 50.3% and the viability, T/C [21] was 24.8%. For the same compound, the viability, T/C [22] was 12.9%, the viability, T/C [23] was 6.23% and the viability, T/C [24] was 5.18%.
